Reference: patent publication US20200352923A1 (priority 2017, published 2020)

Tested on: rat bladder muscle strips (detrusor)
Format: cell-based

With CN(C)C(=O)Oc1ccc[n+](C)c1 [pyridostigmine] the “drop in force from baseline after pyridostigmine” value was 13±6% and the “recovery of the force drop” value was “about 50%”.
